Results on four compounds are retold here after article PMC6566782, “Prodrugs for Skin Delivery of Menahydroquinone-4, an Active Form of Vitamin K2(20), Could Overcome the Photoinstability and Phototoxicity of Vitamin K2(20)” (International Journal of Molecular Sciences, 2019).

Series [1] is described as follows: Photostability in ethanol under artificial sunlight (12,000 lx), LC-MS/MS. Format: physicochemical. The following applies: for main degradation product: sunlight irradiation (MKH-SUC also under shading); for photostability relative to MK-4: ethanol; for half-life at 1 µM: ethanol solution in quartz cells, read-out: half-life (t1/2) of degradation (converted). On the procedure:
The relative irradiance of artificial sunlight at wavelengths of 300 to 800 nm is almost equal to that of natural sunlight, according to the manufacturer. […] MKH-SUC concentration decreased according to an apparent first order rate both with and without shading, although the rate of decrease was accelerated without shading. MKH-DMG and MKH-SUC were more photostable than MK-4 by ca. 50- and 3-fold, respectively.
(§1) Solutions of MK-4 and MKH derivatives in ethanol (1 µM) were irradiated with artificial sunlight (SOLAX 100 W XC-100 B, Seric Ltd., Tokyo, Japan) at 12,000 lx in quartz cells. Illuminance was measured using a digital luminometer (LX-1108, Mother Tool). Irradiation samples (1 µM in ethanol) were irradiated with artificial sunlight at 12,000 lx, and with monochromatic light (279, 341, 373, 404, and 435 nm) using a multi-wavelength irradiation spectrometer (MM 3, Bunkoukeiki Co., Ltd., Tokyo, Japan). Irradiation intensity was measured using an irradiation energy measurement power meter (MM 3, Bunkoukeiki Co., Ltd.).
(§2) LC-MS/MS was performed using an LCMS-8050 Liquid Chromatograph Mass Spectrometer (Shimadzu, Kyoto, Japan) and Shimadzu HPLC System (system controller (CBM-20A), pump (LD-20AD), degasser (DGU-20As), UV detector (SPD-20A), and auto injector (SIL-20AC HT)). Separations were performed on a CAPCELL PAK C18 UG120 (3 μm, 2.0 mm × 100 mm, Shiseido Co., Ltd., Tokyo, Japan) using a mobile phase of 10 mmol/L ammonium acetate and 0.1% acetic acid in methanol and water (97:3) at a flow rate of 0.4 mL/min. Column temperature was maintained at 40 °C. The mass spectrometer was equipped with an electrospray ionization and was run in positive ion mode. Identification and quantitation were based on MS/MS-multiple reaction monitoring mode using transition ions as follows: m/z 445 → 187 for the [M+H]^+ MK-4 adduct, m/z 445 → 187 for the [M + H]^+ chromenol adduct, 619 → 58 for the [M + H]^+ MKH-DMG adduct, m/z 532 → 58 for the [M + H]^+ MKH-mono-DMG adduct, m/z 664 → 187 for the [M + H]^+ MKH-SUC adduct, m/z 564 → 187 for the [M + H]^+ MKH-mono-SUC adduct, and m/z 461 → 81 for the [M + H]^+ MKO adduct.

Series [2] in a line: Photostability in ethanol under monochromatic light of different wavelengths, LC-MS/MS. Format: physicochemical. Also noted: key: -: No decomposition. The following applies: 1 µM in ethanol, 25 °C. On the procedure:
To evaluate the effect of irradiation wavelength on photostability of MK-4 and MKH-ester derivatives, 1 μM solutions of MK-4, MKH-DMG, and MKH-SUC in ethanol were irradiated with a xenon light source monochromatic light at 279, 341, 373, 404, or 435 nm, and the concentration of each compound was measured by LC-MS/MS. The log of concentration of each compound was plotted against irradiation energy (Figure 3), and the rates and half-life energies of degradation were obtained from slopes (Table 2). […] Hydrolytic degradations of MKH-DMG and MKH-SUC to their corresponding monoesters were accelerated only at the short wavelength of 279 nm (Figure 3B,C).
as §1, §2

The nature of series [3]: Singlet oxygen generation assay (p-nitrosodimethylaniline-based ROS assay) after UVA irradiation. Format: physicochemical. The following applies: phosphate-buffered aqueous solution pH 7.4, UVA irradiation 0–15 J/cm^2. The method, then: It has been reported that singlet oxygen promotes the peroxidation of skin surface lipids, resulting in the induction of skin inflammation. Thus, we measured the irradiation intensity-dependent generation of singlet oxygen by MK-4, MKH-DMG, and MKH-SUC in phosphate-buffered aqueous solution after UVA irradiation using a p-nitrosodimethylaniline-based ROS assay (Figure 4).
MK-4 and MKH derivatives were dissolved in a phosphate buffer (NaPB, pH 7.4) containing 0.2% polyoxyethylene hydrogenated castor oil 40 (HCO 40, obtained as a gift sample from Nikko Chemicals Co., Ltd., Osaka, Japan), 2% dimethyl sulfoxide, and 0.1% glycerol. The solutions were treated according to the singlet oxygen assay method (The Japanese Center for the Validation of Alternative Methods, JaCVAM) and irradiated with UVA light from a CL-1000L UV Crosslinker (UVP, Upland, CA, USA). Absorbance was measured using an Infinite M200 PRO (Tecan Life Sciences, Zurich, Switzerland).

The subject of series [4] is HaCaT cells. Nature of the series: Intracellular ROS generation assay (DCFH-DA) with or without UVA irradiation. Format: cell-based, Human. The following applies: UVA irradiation 15 J/cm^2. On the procedure: (§3) The in vitro phototoxicity of MK-4 and MKH derivatives were assessed by measuring the intracellular ROS generation and the viability of human epidermal keratinocyte cells (HaCaT) after UVA irradiation in the presence or absence of MK-4 and MKH derivatives. Intracellular ROS generation was determined using the cell permeable probe 2′,7′-dichlorofluorescein diacetate (DCFH-DA), which rapidly reacts with hydroxyl radicals. Cells without drug treatment or UVA irradiation were used as the control. ROS generation and cell viability are shown in Figure 5 and Figure 6, respectively.
Intracellular ROS generation was measured using 2′,7′-dichlorofluorescein diacetate (DCFH-DA; Invitrogen, Carlsbad, CA, USA) as a fluorescent probe. HaCaT cells were seeded at 1.0 × 10^5 cells/well in 96-well plates and cultured overnight. Thereafter, cells were washed with PBS and incubated with 10 µM DCFH-DA solution in PBS at 37 °C for 1 h. Following incubation, test compound solutions in PBS described above were added to each well and re-incubated for 1 h. After incubation, cells were irradiated with UVA at an irradiation intensity of 15 J/cm^2 and the fluorescence intensity (Ex: 485 nm, Em: 530 nm) was measured using an Infinite M200 PRO (Tecan Life Sciences).

Series [5] concerns HaCaT cells. Nature of the series: Cell viability assay (CellTiter-Glo) 24 h after UVA irradiation. Format: cell-based, Human. The following applies: 24 h after UVA irradiation 15 J/cm^2. On the procedure:
as §3
HaCaT cells were seeded at 1.0 × 10^5 cells/well in 96-well plates and cultured overnight. Thereafter, cells were washed with PBS, and test compound solutions in PBS described above were added to each well and re-incubated for 1 h. After incubation, cells were irradiated with UVA at an irradiation intensity of 15 J/cm^2. After irradiation, cells were washed twice with PBS and replaced in culture medium. After 24 h incubation, cell viability was measured using a CellTiter-Glo® Luminescent Cell Viability Assay (Promega, Madison, WI, USA).
(ATP-based viability assays read luminescence as a measure of living cells.)

On the set-up of series [6]: method as in PMID 7724483. The following applies: physiological pH 7.4 ref 14; cited from earlier work.
In series [7] the test system is hepatocellular carcinoma (HCC) cells. Also noted: method as in PMID 30013007. The following applies: compared with MK-4 ref 17; cited from earlier work.
A further series relates to cultured epidermis. Also on record: method as in doi:10.2772/23121. The following applies: UVA irradiation ref 13; cited from earlier work.
Where [8] appears, read: 1 µM in ethanol, artificial sunlight 12,000 lx, 25 °C.
Setting [9] is: artificial sunlight 12,000 lx, 25 °C.
The mark [10] stands for this setting: 1 µM in ethanol, shading (covered with aluminum foil during irradiation), 25 °C.

Molecules are shown by their SMILES. Where a name gives a salt, the structure may show the parent alone. Read-outs that look alike come from different tables or passages of the source.

On to `CC(C)=CCC/C(C)=C/CC/C(C)=C/CC/C(C)=C/Cc1c(C)c(OC(=O)CN(C)C)c2ccccc2c1OC(=O)CN(C)C` [MKH-DMG, menahydroquinone-4 1,4-bis-N,N-dimethylglycinate hydrochloride], for which the “apparent first order rate constant (k) of degradation” value in series [1] (setting [8]) worked out at 0.167 h⁻¹. Besides, the “concentration change under shading” value in series [1] (1 µM in ethanol, shading, 25 °C) was “unchanged under shading”. Further, in series [1] (1 µM in ethanol), the main degradation product result is reported as “MKH-mono-DMG”. In series [1] (setting [9]), the “photostability relative to MK-4” value is reported as “ca. 50 fold”. Moreover, in series [1] (setting [8]), the half-life at 1 µM was 249 min. For the same compound, the “rate constant (k) of degradation” value in series [2] (monochromatic light 279 nm) was 0.146 J^−1·cm^2; in series [2] (monochromatic light 341 nm) it was “- ^b”; in series [2] (monochromatic light 373 nm) it was “- ^b”; in series [2] (monochromatic light 404 nm) it was “- ^b”; in series [2] (monochromatic light 435 nm) it was “- ^b”. For the same compound, the “half-life energy (E1/2) of degradation” value in series [2] (monochromatic light 341 nm), in series [2] (monochromatic light 373 nm), in series [2] (monochromatic light 404 nm) and in series [2] (monochromatic light 435 nm) was “- ^b” each time. In series [3], the singlet oxygen generation entry is recorded as “little generation of singlet oxygen”. In addition, in the series with HaCaT cells [4], the “intracellular ROS level” value is on record as “no significant changes”. Besides, the cell viability result in the series with HaCaT cells [5] is given as “unaffected”. Besides, the “partition coefficient (log P)” value in series [6] is 3.66. In addition, the “delivery of MKH into HCC cells” value in series [7] is on record as “more effectively than MK-4”.
In the case of `CC(C)=CCC/C(C)=C/CC/C(C)=C/CC/C(C)=C/Cc1c(C)c(OC(=O)CCC(=O)O)c2ccccc2c1OC(=O)CCC(=O)O` [MKH-SUC, menahydroquinone-4 1,4-bis-hemisuccinate], the entries for the “apparent first order rate constant (k) of degradation” value in series [1] (setting [8]) and in series [1] (setting [10]) were 2.796 h⁻¹ and 0.883 h⁻¹, respectively. The main degradation product entry in series [1] (1 µM in ethanol) is reported as “MKH-mono-SUC”. Besides, the “photostability relative to MK-4” value in series [1] (setting [9]) is given as around 3 fold. The half-life at 1 µM in series [1] (setting [8]) was 14.9 min; in series [1] (setting [10]), 47.1 min. In addition, the “rate constant (k) of degradation” value was 0.110 J^−1·cm^2 in series [2] (monochromatic light 279 nm); 0.069 J^−1·cm^2 in series [2] (monochromatic light 341 nm); 0.059 J^−1·cm^2 in series [2] (monochromatic light 373 nm); 0.061 J^−1·cm^2 in series [2] (monochromatic light 404 nm); 0.068 J^−1·cm^2 in series [2] (monochromatic light 435 nm). For the same compound, the singlet oxygen generation result in series [3] is given as “little generation of singlet oxygen”. In addition, in the series with HaCaT cells [4], the “intracellular ROS level” value is “no significant changes”. In addition, the cell viability result with HaCaT cells [5] was “unaffected”. Besides, the “delivery of MKH into HCC cells” value in series [7] is listed as “more effectively than MK-4”.
Consider `COc1cc(O)c(C(=O)c2ccccc2)cc1S(=O)(=O)O` [sulisobenzone, reference compound], for which the singlet oxygen generation result in series [3] is “little generation of singlet oxygen”.
As for `CC1=C(C/C=C(\C)CCC[C@H](C)CCC[C@H](C)CCCC(C)C)C(=O)c2ccccc2C1=O` [vitamin K1], the “phototoxicity against cultured epidermis” value in the series with cultured epidermis was “exhibits phototoxicity”.
